Experimental data from article PMC3315515, “Identification of Novel Mt-Guab2 Inhibitor Series Active against M. tuberculosis” (PLoS ONE, 2012).
Converted amounts (≈) assume the structure as drawn. “And” between values parts separate entries of the source, which are not always exact repeats. Equal values may be shown once. “Also recorded” adds a separate entry of the source. Read-outs that look alike come from different tables or passages of the source.

Assays:
M. smegmatis mc^2 155 = experiment: microbe, parasite or virus in culture; assay type: cell-based; conditions: for M. smeg MIC90: Table 2, highest concentration tested 128 µg/ml
M. tuberculosis H37Rv = conditions: cited from earlier work
Mt-GuaB2 = Mt-GuaB2 (Mycobacterium tuberculosis, UniProt P9WKI7); experiment: Mt-GuaB2 spectrophotometric assay (NADH formation at 340 nm), inhibitor kinetics; assay type: biochemical
S. pyogenes IMPDH = conditions: ref [29], [34]; cited from earlier work
[1] = system: M. smegmatis overexpressing Mt-GuaB2; experiment: microbe, parasite or virus in culture; assay type: cell-based
M. smegmatis pVV16 = experiment: MIC of M. smegmatis with empty pVV16 vector control; assay type: cell-based; conditions: Mycolicibacterium smegmatis, Figure 4, vector alone control
M. smegmatis = experiment: bactericidal activity against M. smegmatis (colony counts after 24 hours exposure); assay type: cell-based; conditions: Mycolicibacterium smegmatis, at least 99% reduction of viable counts, read-out: minimum bactericidal concentration (MBC)
[2] = system: M. tuberculosis Erdman strain; conditions: for Log 10 Protection, spleen / Log 10 Protection, lung: versus untreated controls d24, INH 25, 7759844 300 mg/kg/day
[3] = acute maximum tolerated dose (MTD) test; conditions: single dose 100, 300, 500 mg/kg by gavage in 0.5% methyl cellulose, seven days observation, C57BL/6 mice
[4] = system: NC(=O)c1ccc[n+]([C@@H]2O[C@H](COP(=O)([O-])OP(=O)(O)OC[C@H]3O[C@@H](n4cnc5c(N)ncnc54)[C@H](O)[C@@H]3O)[C@@H](O)[C@H]2O)c1; experiment: purified protein, by the assay type; conditions: other: variable substrate, fixed saturating co-substrate, 200 µl assay; pH 8.5; 37.0 °C
[5] = Table 2, Life Chemicals set, values without footnote a, previous screens ref [35]–[37]
[6] = Table 2, varied IMP, fixed saturating NAD+ 2.8 mM
[7] = Table 2, values with footnote a, ref Reynolds et al., 2011

Chain of Mt-GuaB2 (P9WKI7 whole entry, looked up): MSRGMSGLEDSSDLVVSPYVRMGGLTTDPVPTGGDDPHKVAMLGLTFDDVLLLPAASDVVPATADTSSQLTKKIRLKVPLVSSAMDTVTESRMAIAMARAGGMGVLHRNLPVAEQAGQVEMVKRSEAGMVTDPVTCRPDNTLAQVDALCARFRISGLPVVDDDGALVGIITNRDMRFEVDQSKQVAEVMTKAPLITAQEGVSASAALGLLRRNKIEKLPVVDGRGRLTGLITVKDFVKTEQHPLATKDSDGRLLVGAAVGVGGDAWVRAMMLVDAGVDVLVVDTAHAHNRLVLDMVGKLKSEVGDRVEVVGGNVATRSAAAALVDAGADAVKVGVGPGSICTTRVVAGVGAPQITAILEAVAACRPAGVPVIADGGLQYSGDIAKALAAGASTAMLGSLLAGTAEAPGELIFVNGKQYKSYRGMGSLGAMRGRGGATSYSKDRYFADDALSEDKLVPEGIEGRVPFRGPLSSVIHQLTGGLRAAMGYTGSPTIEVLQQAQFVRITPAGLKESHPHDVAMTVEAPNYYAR

| Compound | M. smeg MIC90 (M. smegmatis mc^2 155; TSB agar, 37°C, 3 days) | M. tb MIC90 (M. tuberculosis H37Rv; [5]) | IMP αK i (Mt-GuaB2; [6]) | further results |
| --- | --- | --- | --- | --- |
| Cc1ccc(C)c(-c2nnc(NC(=O)COc3ccccc3)o2)c1 [F2518-0418] | 32 µg/mL | 2.24 µg/mL | 328.7 µM |  |
| O=C(Nc1nnc(-c2ccccc2Cl)o1)c1nc2ccccc2s1 [F1374-0033] | 8 µg/mL | 1.75 µg/mL | 60.9 µM |  |
| NC(=O)c1ccc[n+]([C@@H]2O[C@H](COP(=O)([O-])OP(=O)(O)OC[C@H]3O[C@@H](n4cnc5c(N)ncnc54)[C@H](O)[C@@H]3O)[C@@H](O)[C@H]2O)c1 [NAD^+, nicotinamide adenine dinucleotide] |  |  |  | Km (S. pyogenes IMPDH): ~1180 µM |
| CCOc1cc(-c2nnc(NC(=O)c3cc4ccccc4cc3OC)o2)cc(OCC)c1OCC [F2517-0198] | >128 µg/mL | 2.68 µg/mL | 19.1 µM |  |
| Cc1ccc(-c2nnc(NC(=O)COc3ccccc3)o2)c(C)c1 [F2518-0274] | 20 µg/mL | 5.50 µg/mL | 765.4 µM |  |
| O=C(Nc1nnc(-c2ccccc2)o1)c1cc(-c2cccs2)nc2ccccc12 [F1374-0885] | 2 µg/mL | 0.72 µg/mL | 19.0 µM |  |
| COc1ccc(OC(C)C(=O)Nc2ccc(I)cc2)cc1 (centres unmarked) [compound 7759844] |  |  |  | MIC90 (M. smegmatis mc^2 155; Mycolicibacterium smegmatis, MC^2155, 72 h, Table 1, TSB agar, 37°C, 3 days, read-out: M. smeg MIC90): 8 µg/mL (≈ 20.1 µM); MIC99 (M. smegmatis mc^2 155; Mycolicibacterium smegmatis, MC^2155, Figure 4, M. smegmatis mc^2 155): 8 µg/mL (≈ 20.1 µM); MIC99 ([1]; Mycolicibacterium smegmatis, Figure 4, Mt-GuaB2 overexpression construct in pVV16): 48 µg/mL (≈ 121 µM); increase in MIC of Mt-GuaB2 overexpressing strain ([1]; compared with pVV16 vector control and wild type M. smegmatis): 6 fold; MIC99 (M. smegmatis pVV16): 8 µg/mL; M. tb MIC90 (M. tuberculosis H37Rv; Table 1, Chembridge compounds, M. tuberculosis H37Rv, previous screens ref [35]–[37]): 0.63 µg/mL; M. tb MIC90 (M. tuberculosis H37Rv; Table 3, analogs of lead scaffold, previous screens ref [35]–[37]): 0.633 µg/mL; MBC (M. smegmatis): 32 µg/mL (≈ 80.6 µM); IMP αK i (Mt-GuaB2; Table 1, varied IMP, fixed saturating NAD+ 2.8 mM): 0.603 µM; IMP αK i (Mt-GuaB2; Table 3, analogs of lead scaffold): 0.603 µM; K i values (Mt-GuaB2; with respect to both substrates IMP and NAD+): nanomolar range; Log 10 Protection, spleen ([2]; spleen): 0.84 log10 protection units; Activity ([2]; spleen, 300 mg/kg/day): slightly active; tolerability, acute single dose [3]: no dose related adverse effects; also recorded: well tolerated with no acute adverse effects; also recorded: not toxic |
| Cc1ccc(C)c(-c2nnc(NC(=O)c3cccc4ccccc34)o2)c1 [F2518-0386] |  |  | 22.6 µM | M. tb MIC90 (M. tuberculosis H37Rv; [7]): 0.41 µg/ml and 0.41 ^a µg/ml |
| CC(C)c1ccc(OCC(=O)Nc2nccs2)cc1 [F1685-0077] | >128 µg/mL | 6.88 µg/mL | 229.3 µM |  |
| NNC(=O)c1ccncc1 [Isoniazid, isoniazid, reference compound] |  |  |  | Log 10 Protection, lung ([2]; 300 mg/kg/day): 2.7 log10 protection units; Log 10 Protection, lung ([2]; listed as INH, 300 mg/kg/day): 2.70 log10 protection units; Log 10 Protection, spleen ([2]; spleen, 300 mg/kg/day): 4.0 log10 protection units; Log 10 Protection, spleen ([2]; spleen, listed as INH, 300 mg/kg/day): 4.04 log10 protection units |
| COc1cc2ccccc2cc1C(=O)Nc1nnc(-c2cc(C)ccc2C)o1 [F2518-0413] | >128 µg/mL | 1.23 µg/mL | 36.4 µM |  |
| O=C(Nc1nnc(-c2ccc(Br)cc2)o1)c1sc2ccccc2c1Cl [F2518-0484] | 3 µg/mL | 6.70 µg/mL | 35.5 µM |  |
| O=C(CS(=O)(=O)c1ccccc1)Nc1nc(-c2ccc3c(c2)CCCC3)cs1 [F2536-1573] | >128 µg/mL | 1.02 µg/mL | 79.0 µM |  |
| O=C(Nc1nnc(-c2ccc(Cl)s2)o1)c1nc2ccccc2s1 [F1374-1083] | >128 µg/mL | 4.81 µg/mL | 4.86 µM |  |
| COc1cc2ccccc2cc1C(=O)Nc1nnc(-c2ccc(F)cc2)o1 [F1374-0205] | >128 µg/mL | 5.59 µg/mL | 35.3 µM |  |
| O=C(Nc1nnc(-c2cccs2)o1)c1nc2ccccc2s1 [F1374-0978] | >128 µg/mL |  | 28.3 µM | M. tb MIC90 (M. tuberculosis H37Rv; [7]): 2.98 ^a µg/ml |
| Mt-GuaB2 (Mycobacterium tuberculosis H37Rv) |  |  |  | Km [4]: 699.4 ± 63.70 µM |
| Cc1ccc(C)c(-c2nnc(NC(=O)C3COc4ccccc4O3)o2)c1 (centres unmarked) [F2518-0401] | 16 µg/mL | 1.18 µg/mL | 501.9 µM |  |
| Cc1ccc(-c2nnc(NC(=O)c3nc4ccccc4s3)o2)c(C)c1 [F2518-0183] | >128 µg/mL |  | 57.1 µM | M. tb MIC90 (M. tuberculosis H37Rv; [7]): 1.76 ^a µg/ml |
| COc1ccccc1-c1nnc(NC(=O)c2sc3ccccc3c2Cl)o1 [F1374-0253] | >128 µg/mL | 5.30 µg/mL | 11.2 µM | pattern of inhibition with respect to IMP (Mt-GuaB2): uncompetitive inhibition; pattern of inhibition with respect to NAD+ (Mt-GuaB2): noncompetitive inhibition; pattern of inhibition with respect to NAD (Mt-GuaB2; Table 2): NC ((NC) Noncompetitive); Ki (Mt-GuaB2; Table 2, varied NAD+, fixed saturating IMP […], read-out: NAD K i): 435 µM |
